One series concerns the target T1, human CCR5 (Homo sapiens, UniProt P51681).
T1 construct: expressed in transfected cells
Kind of series: CCR5-binding inhibition: [125I]-RANTES binding to CHO/CCR5 cells. The following applies: test compound 1 μM; ligand [125I]-RANTES 100 pM; CHO/CCR5 strains; room temperature, 30 minutes. The method, then:
After CHO-K1 cells, which were grown in a 750-ml, tissue culture flask (Beckton, Dickinson and Company) using Ham F12 medium (Nihon Pharmaceutical Co., Ltd.) containing 10% fetal calf serum (Life Technologies Oriental, Inc.), were removed from the flask with 0.5/L trypsin-0.2 g/L EDTA (Life Technologies Oriental, Inc.), the cells were washed with PBS (Life Technologies Oriental, Inc.), were centrifuged (1000 rpm, 5 minutes) and were suspended in PBS. Next, DNA was introduced into the cells by the use of Gene Pulser (Bio-Rad Laboratories Inc.) under the following conditions. In other words, 8×10^6 cells and 10 μg human CCR5 expression plasmid pCKR5 were added into a cuvette with a 0.4-cm gap, and the cells were electroporated at 0.25 kV under a capacitance of 960 μF. Subsequently, the cells were transferred to Ham F12 medium containing 10% fetal calf serum, and were cultivated for 24 hours. The cells were then removed from the flask again for centrifugation, were then suspended in Ham F12 medium containing 10% fetal serum albumin containing geneticin (Life Technologies Oriental, Inc.) at a final concentration of 500 μg/ml, were diluted to 10^4 cells/ml and were seeded into 96-well plates (Beckton, Dickinson and Company) to obtain geneticin-resistant strains.
Next, after the thus-obtained geneticin-resistant strains were cultivated in a 96-well plate (Beckton, Dickinson and Company), cells expressing CCR5 were selected from the resistant strains. In other words, the binding reaction was carried out at room temperature for 40 minutes in an assay buffer (Ham F12 medium containing 0.5% BSA and 20 mM HEPES (Wako Pure Chemical Industries, Ltd.)) that is supplemented with 200 pM [^125I]-RANTES (Amersham plc) as a ligand, and the cells were washed with ice-cold PBS, were then stirred after adding 50 μl/well of 1M NaOH and were counted for radioactivity in a γ-counter to select CHO/CCR5 strains, the cells to which the ligand was specifically bound.
CHO/CCR5 strains were seeded into 96-well microplates at a density of 5×10^4 cells/well, and were cultivated for 24 hours. After the culture fluid was removed by suction, the assay buffer containing a test compound (1 μM) was added to each well, and a ligand [^125I]-RANTES (Amersham Corporation) was added to a final concentration of 100 pM, after which the reaction was carried out at room temperature for 30 minutes. Next, after the assay buffer was removed by suction, the cells were washed twice with ice-cold PBS. Subsequently, 200 μl of MicroScint-20 (Packard Industry Company, Inc.) was added to each well, which was counted for radioactivity in a Top Count (Packard Industry Company, Inc.).
Percentages of CCR5-binding inhibition by test compounds were determined according to the method described above.

SMILES strings stand for the structures.

From US6627651B1, “Cyclic compounds and uses thereof” (Takeda Chemical Industries, Ltd., priority 1999, dated 2003) come the findings set out here.

T1 sequence (P51681 whole entry): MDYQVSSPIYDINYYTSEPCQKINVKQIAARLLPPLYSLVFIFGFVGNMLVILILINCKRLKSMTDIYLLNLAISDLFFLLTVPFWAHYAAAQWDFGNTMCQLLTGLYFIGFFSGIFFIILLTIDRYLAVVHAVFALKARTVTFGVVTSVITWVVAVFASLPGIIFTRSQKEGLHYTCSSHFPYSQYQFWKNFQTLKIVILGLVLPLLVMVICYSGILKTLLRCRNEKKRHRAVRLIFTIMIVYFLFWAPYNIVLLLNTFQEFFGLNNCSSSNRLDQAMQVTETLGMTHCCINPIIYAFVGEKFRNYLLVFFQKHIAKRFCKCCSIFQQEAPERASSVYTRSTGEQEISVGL

For orientation: inhibition means the share of the control response that was lost under treatment. Low readings indicate a response near the control, high ones a response far below the control. The term melting point denotes the temperature, or range, at which the solid turns liquid. In the case of `Cc1ccc(-c2ccc3c(c2)C=C(C(=O)NC2CCN(C4CCOCC4)CC2)CCO3)cc1` [Compound 56, N-(1-(tetrahydropyran-4-yl)piperidin-4-yl)-7-(4-methylphenyl)-2,3-dihydro-1-benzooxepine-4-carboxamide], the melting point was 199 to 204 °C (dec.). This compound also registered an inhibition at 1 µM on human CCR5 of 74%. For `CCCOc1ccccc1COc1ccc2c(c1)C=C(C(=O)Nc1ccc(CN(C)C3CCOCC3)cc1)CCS2(=O)=O` [Compound 21, N-[4-[N-methyl-N-(tetrahydropyran-4-yl)aminomethyl]phenyl]-7-[(2-propoxybenzyl)oxy]-1,1-dioxo-2,3-dihydro-1-benzothiepine-4-carboxamide], in that order: 190 to 192 °C and 98%. The compound `CCCOCCOc1ccc(COc2ccc3c(c2)C=C(C(=O)Nc2ccc(CN(C)C4CCOCC4)cc2)CCS3(=O)=O)cc1` [Compound 108, N-[4-[[N-methyl-N-(tetrahydropyran-4-yl)amino]methyl]phenyl]-7-[[4-(2-propoxyethoxy)benzyl]oxy]-1,1-dioxo-2,3-dihydro-1-benzothiepine-4-carboxamide] came in with a melting point of 175 to 176 °C. On human CCR5, this compound yielded an inhibition at 1 µM of 86%. For `CCCOc1cccc(COc2ccc3c(c2)C=C(C(=O)Nc2ccc(CN(C)C4CCOCC4)cc2)CCS3(=O)=O)c1` [Compound 20], at human CCR5, the “Inhibition of binding (%)” value is listed as 94%.

Consider `Cc1ccc(-c2ccc3c(c2)C=C(C(=O)Nc2ccc(CC4=NCCN4)cc2)CCO3)cc1` [Compound 94], for which the “Inhibition of binding (%)” value on human CCR5 is 76%.

Take `CCCOc1ccc(CCOc2ccc3c(c2)C=C(C(=O)Nc2ccc(CN(C)C4CCOCC4)cc2)CCS3(=O)=O)cc1` [Compound 19, N-[4-[N-methyl-N-(tetrahydropyran-4-yl)aminomethyl]phenyl]-7-[4-(propoxyphenethyl)oxy]-1,1-dioxo-2,3-dihydro-1-benzothiepine-4-carboxamide]: the “Inhibition of binding (%)” value on human CCR5 is reported as 86%. Consider `CCCOc1ccc(CCCOc2ccc3c(c2)C=C(C(=O)Nc2ccc(CN(C)C4CCOCC4)cc2)CCS3(=O)=O)cc1` [Compound 121, N-[4-[[N-methyl-N-(tetrahydropyran-4-yl)amino]methyl]phenyl]-7-[3-(4-propoxyphenyl)propoxy]-1,1-dioxo-2,3-dihydro-1-benzothiepine-4-carboxamide], for which the melting point is 178 to 181 °C. On human CCR5, this compound registered an inhibition at 1 µM of 82%. On to `CCCOc1ccc(COc2ccc3c(c2)C=C(C(=O)Nc2ccc(CN(C)C4CCOCC4)cc2)CCS3(=O)=O)cc1` [Compound 100], for which the “Inhibition of binding (%)” value at human CCR5 is reported as 89%.
